Key:
Assay type in all cases: toxicity, cell-based
HEK-293T = assay: Incucyte cell viability with HEK293T; details: human, 10 µM, compound concentration 10 uM
Fibroblast = assay: Incucyte cell viability with human fibroblast; details: 10 µM, compound concentration 10 uM
U2OS = assay: Incucyte cell viability with U2OS; details: human, 10 µM, compound concentration 10 uM
Note: unitless GR value; below 1 slowed growth and below 0 cell loss.

Row | Compound | Growth Rate (HEK-293T; 0 h, replicate number 2) | Growth Rate (HEK-293T; 6 h, replicate number 1) | Growth Rate (HEK-293T; 12 h, replicate number 1) | Growth Rate (HEK-293T; 24 h, replicate number 1) | Growth Rate (Fibroblast; 12 h, replicate number 1) | Growth Rate (U2OS; 0 h, replicate number 1) | Growth Rate (U2OS; 6 h, replicate number 1) | Growth Rate (U2OS; 12 h, replicate number 2) | Growth Rate (U2OS; 18 h, replicate number 1) | Growth Rate (U2OS; 18 h, replicate number 2) | Growth Rate (U2OS; 24 h, replicate number 2) | Growth Rate (HEK-293T; 6 h, replicate number 2) | Growth Rate (HEK-293T; 12 h, replicate number 2) | Growth Rate (HEK-293T; 24 h, replicate number 2) | Growth Rate (Fibroblast; 6 h, replicate number 1) | Growth Rate (Fibroblast; 18 h, replicate number 1) | Growth Rate (Fibroblast; 24 h, replicate number 1) | Growth Rate (U2OS; 6 h, replicate number 2) | Growth Rate (U2OS; 12 h, replicate number 1) | Growth Rate (Fibroblast; 0 h, replicate number 2) | also measured
1 | CC(=O)Nc1ncc(CN2CCC[C@H](Cc3cc(C)nc(C)c3)C2)s1 [JNJ-65355394] | -0.2 | 0.82 | 0.83 | 0.91 | 0.9 | -1 | -0.86 | 0.62 | 0.96 | 0.92 | 0.78 | – | – | – | – | – | – | – | – | – | Growth Rate (Fibroblast; 0 h, replicate number 1): -1; Growth Rate (Fibroblast; 6 h, replicate number 2): 0.74; Growth Rate (Fibroblast; 12 h, replicate number 2): 0.75; Growth Rate (Fibroblast; 18 h, replicate number 2): 0.94
2 | COc1cc(Cl)c(C(=O)N[C@@H](CN[C@H]2CC[C@@H](N)CC2)Cc2ccc(C#N)cc2)cc1-c1ccc(CN[C@H](C)c2ccc(C)cc2)o1 | -1 | -0.6 | -0.61 | -0.42 | -0.8 | -1 | -0.95 | -0.86 | -0.77 | -0.78 | -0.76 | -0.61 | -0.53 | -0.4 | -0.93 | -0.76 | -0.72 | -0.91 | -0.87 | – | Growth Rate (HEK-293T; 18 h, replicate number 1): -0.48; Growth Rate (Fibroblast; 6 h, replicate number 2): -0.83; Growth Rate (Fibroblast; 12 h, replicate number 2): -0.82; Growth Rate (Fibroblast; 18 h, replicate number 2): -0.74; Growth Rate (Fibroblast; 24 h, replicate number 2): -0.68; Growth Rate (U2OS; 0 h, replicate number 2): -0.99; Growth Rate (U2OS; 24 h, replicate number 1): -0.74
3 | O[C@]1(C(F)(F)F)CCCC[C@H]1Nc1ccc(F)cc1 [BAY-390] | -0.23 | – | – | – | 0.69 | -0.18 | 0.4 | 0.8 | 0.69 | – | 0.93 | 0.5 | 0.95 | – | 0.19 | 0.78 | 0.89 | 0.7 | 0.57 | 0.2 | Growth Rate (HEK-293T; 0 h, replicate number 1): -0.2; Growth Rate (U2OS; 0 h, replicate number 2): 0.62; Growth Rate (U2OS; 24 h, replicate number 1): 0.74
4 | O=C(O)c1ccc(S(=O)(=O)N(Cc2ccc(OC(F)(F)F)cc2)c2ncc(C(F)(F)F)cc2Cl)cc1 | – | – | – | – | – | – | – | 0.75 | – | 0.93 | 0.85 | 0.33 | 0.79 | 0.93 | 0.15 | 0.16 | 0.93 | 0.99 | – | -0.5 | Growth Rate (HEK-293T; 0 h, replicate number 1): 0.66; Growth Rate (HEK-293T; 18 h, replicate number 2): 0.81; Growth Rate (Fibroblast; 0 h, replicate number 1): 0.4
5 | CC1(C)CC(=O)c2c(SCCO)sc(-c3nccs3)c2C1 | 0.82 | – | – | – | – | – | 0.66 | – | 0.97 | – | 0.97 | – | – | – | -1 | – | – | – | 0.87 | -0.3 | –
6 | Nc1c(CC(=O)O)cccc1C(=O)c1ccc(Br)cc1 [BROMFENAC] | -0.53 | – | – | 0.98 | – | 0.27 | 0.2 | 0.95 | 0.86 | 0.92 | 0.95 | – | – | – | – | – | – | – | 0.79 | -0.66 | Growth Rate (HEK-293T; 0 h, replicate number 1): 0.43; Growth Rate (U2OS; 24 h, replicate number 1): 0.74
7 | CN(C)[C@H]1CCc2nc(NC(=O)c3cccc(Cn4cc(-c5ccc(C#N)cc5)cn4)c3)sc2C1.O=C(O)C(F)(F)F | -0.96 | 0.98 | 0.52 | 0.51 | – | – | – | – | – | 0.89 | 0.75 | 0.68 | 0.74 | 0.62 | – | – | – | – | – | -0.64 | Growth Rate (HEK-293T; 18 h, replicate number 1): 0.59; Growth Rate (HEK-293T; 18 h, replicate number 2): 0.68; Growth Rate (Fibroblast; 0 h, replicate number 1): -0.59; Growth Rate (Fibroblast; 24 h, replicate number 2): 0.57
8 | CCN(CC)C/C=C/C(=O)Nc1cc2c(Nc3ccc(F)c(Cl)c3)ncnc2cc1OCC1CC1 | – | -0.54 | -0.39 | -0.25 | 0 | -0.62 | 0.31 | 0.08 | -0.19 | 0.06 | -0.01 | -0.45 | -0.32 | -0.29 | 0.22 | -0.12 | -0.22 | 0.36 | -0.19 | -0.83 | Growth Rate (HEK-293T; 18 h, replicate number 1): -0.32; Growth Rate (HEK-293T; 18 h, replicate number 2): -0.35; Growth Rate (Fibroblast; 6 h, replicate number 2): -0.01; Growth Rate (Fibroblast; 12 h, replicate number 2): -0.26; Growth Rate (Fibroblast; 18 h, replicate number 2): -0.4; Growth Rate (Fibroblast; 24 h, replicate number 2): -0.46; Growth Rate (U2OS; 24 h, replicate number 1): -0.24
